Results reported in patent US20260144258A1, “CRYSTAL OF 2-(5-CYCLOPROPYL-3-(ETHYLSULFONYL)PYRIDIN-2-YL)-5-((TRIFLUOROMETHYL)SULFONYL)BENZO[D]OXAZOLE” (SUMITOMO CHEMICAL COMPANY, LIMITED, priority 2022, published 2026).

How the values were obtained:
Assay type in all cases: in vivo
[1] = tested on: German cockroach (Blattella germanica); test: Test method 8: treated filter paper with sugar water, German cockroach male adults; details: 0.8 ppm, 0.7 ml on filter paper, after 5 days, 25° C.
Method: (§1) Next, an efficacy of the Type 1 crystal of Compound (1) on controlling harmful arthropods is shown by Test examples. The following tests were conducted at 25° C.
(§2) Test compound is made to a formulation according to a similar method to that described in the Formulation example 1, and thereto is added 1.8 g of sucrose, followed by adding 3% sugar water to prepare a dilution containing a prescribed concentration of the test compound.
(§3) A filter paper having a diameter of 5.5 cm is spread on the bottom of the cup, and then 0.7 ml of the dilutions are added dropwise to the filter paper, and five (5) German cockroach (Blattella germanica) male adults are released into the cup, and the cup is covered with the lid. After 5 days, the number of the dead and distressed individuals of German cockroach male adults are counted, and the ratio of distressed and dead insects (%) is calculated by the following equation.
(§4) Here the dead individual is one whose behavior has completely stopped, and a distressed individual is one that cannot stand up when placed on its back and also cannot walk.

[2] = tested on: cotton aphids (Aphis gossypii); test: Test method 1: foliar spray on cucumber seedling infested with cotton aphids; details: 500 ppm, spray 10 mL/seedling on cucumber, cotton aphids all stages, after 5 days, 25° C.
Method: Next, an efficacy of the Type 1 crystal of Compound (1) on controlling harmful arthropods is shown by Test examples. The following tests were conducted at 25° C. Test compound is made to a formulation according to a similar method to that described in the Formulation example 1, and thereto is added water containing 0.03 v/v % of Shindain (registered trademark) to prepare a dilution containing a prescribed concentration of the test compound. Cucumber (Cucumis sativus) seedling (on the developmental stage of the second true leaf) is planted in a cup, and approximately 30 cotton aphids (Aphis gossypii) (all stages of life) are released onto the seedling. After one day, the dilutions are sprayed onto the seedling at a ratio of 10 mL/seedling. After 5 days, the number of the surviving insects is examined, and the controlling value is calculated by the following equation. […]

[3] = tested on: diamondback moths (Plutella xylostella); test: Test method 3: sprayed cabbage leaf, diamondback moth larvae; details: 120 h, spray 20 mL/seedling on cabbage, second instar larvae, after 5 days, 25° C., read-out: mortality of insects
Method: as §1
(§5) Test compound is made to a formulation according to a similar method to that described in the Formulation example 1, and thereto is added water containing 0.03 v/v % of Shindain (registered trademark) to prepare a dilution containing a prescribed concentration of the test compound.
(§6) Cabbage (Brassicae oleracea) seedling (on the developmental stage of the second to third true leaf) is planted in a cup, and the dilutions are sprayed onto the seedling at a ratio of 20 mL/seedling. Thereafter, the stem and leaf thereof are cut out and then are placed into a cup that is lined with a filter paper. Five (5) diamondback moths (Plutella xylostella) at the second instar larval stage are released into the cup. After 5 days, the number of the surviving insects is counted, and the mortality of insects is calculated by the following equation.

[4] = tested on: cotton aphids (Aphis gossypii); test: Test method 6: sprayed cucumber seedling with artificial rainfall, cotton aphids; details: 1 ppm, spray 10 mL/seedling on cucumber, artificial rainfall 10 mm/hr for 1 hour, female adults released after one day, after 5 days, 25° C.
Method: Next, an efficacy of the Type 1 crystal of Compound (1) on controlling harmful arthropods is shown by Test examples. The following tests were conducted at 25° C. Test compound is made to a formulation according to a similar method to that described in the Formulation example 1, and thereto is added water containing 0.02 v/v % of Shindain (registered trademark) to prepare a dilution containing a prescribed concentration of the test compound. Only the second true leaves of Cucumber (Cucumis sativus) seedling (on the developmental stage of the third true leaf) are retained, and the other leaves are cut off, and the dilutions are sprayed onto the seedling at a ratio of 10 mL/seedling. After the dilution, which is treated, is dried, rain is given to the cucumber seedling with an artificial rainfall device at 10 mm/hr for 1 hour. After one day, 10 cotton aphids (Aphis gossypii) female adults are released onto the seedling. After 5 days, the number of the surviving insects is examined and the controlling value is calculated by the following equation. […]

[5] = tested on: common cutworms (Spodoptera litura); test: Test method 2: sprayed cabbage leaf, common cutworm larvae; details: 120 h, spray 20 mL/seedling on cabbage, second instar larvae, after 5 days, 25° C., read-out: mortality of insects
Method: as §1, §5
as §6, with “with” for “with a”, “commom cutworms (Spodoptera litura)” for “diamondback moths (Plutella xylostella)”
Mortality (%)=(1−Number of surviving insects/5)×100

[6] = tested on: brown planthoppers (Nilaparvata lugens); test: Test method 5: sprayed rice seedling, brown planthopper larvae; details: 144 h, spray 10 mL/seedling on rice, third instar larvae, after 6 days, 25° C., read-out: mortality of insects
Method: as §1, §5
Rice (Oryza sativa) seedling (on the developmental stage of the second leaf) is planted in a cup, and the dilutions are sprayed onto the seedling at a ratio of 10 mL/seedling. Thereafter, twenty (20) brown planthoppers (Nilaparvata lugens) at the third instar larval stage are released into the cup. After 6 days, the number of the surviving insects is counted, and the mortality of insects is calculated by the following equation.
Mortality (%)=(1−Number of surviving insects/20)×100

[7] = tested on: common house mosquitos (Culex pipiens pallens); test: Test method 4: mosquito larvae released into dilution; details: 24 h, last instar larvae in dilution, after 1 day, 25° C., read-out: mortality of insects
Method: as §1
Test compound is made to a formulation according to a similar method to that described in the Formulation example 1, and thereto is added water to prepare a dilution containing a prescribed concentration of the test compound.
Into the dilution, 30 common house mosquitos (Culex pipiens pallens) at the last instar larval stage are released, and after 1 day, the state of the common house mosquito larvae is examined, and the mortality of insects is calculated by the following equation.
Mortality (%)=(Number of dead insects/Number of tested insects)×100

[8] = tested on: Argentine ant (Linepithema humile); test: Test method 7: treated filter paper with sugar water, Argentine ant workers; details: 12.5 ppm, 0.7 ml on filter paper, after 6 days, 25° C.
Method: as §1, §2
as §3, with “the dilutons” for “the dilutions”, “and ten (10) Argentine ant (Linepithema humile) workers” for “and five (5) German cockroach (Blattella germanica) male adults”, “After 6” for “After 5”, “of Argentine ant workers” for “of German cockroach male adults”
as §4

Row | SMILES | ratio of distressed and dead insects [1] | controlling value [2] | mortality at 500 ppm [3] | controlling value [4] | mortality at 500 ppm [5] | mortality at 500 ppm [6] | mortality at 3.5 ppm [7] | ratio of distressed and dead insects [8]
1 | CCS(=O)(=O)c1cc(C2CC2)cnc1-c1nc2cc(S(=O)(=O)C(F)(F)F)ccc2o1 [Type 1 crystal of Compound (1), 2-(5-cyclopropyl-3-(ethylsulfonyl)pyridin-2-yl)-5-((trifluoromethyl)sulfonyl)benzo[d]oxazole] | 100% | ≥ 90% | ≥ 80% | 40.5% | ≥ 80% | ≥ 90% | ≥ 90% | 100%
2 | CCS(=O)(=O)c1cc(C2CC2)cnc1-c1nc2cc(S(=O)(=O)C(F)(F)F)ccc2o1 [amorphous of Compound (1), 2-(5-cyclopropyl-3-(ethylsulfonyl)pyridin-2-yl)-5-((trifluoromethyl)sulfonyl)benzo[d]oxazole] | 30% | – | – | – | – | – | – | 35%
